O=C(NC[C@H]1CN(c2ccc(N3CCOCC3=O)cc2)C(=O)O1)c1ccc(Cl)s1
solubility (mole fraction)
Details	278.15 K	283.15 K	288.15 K	293.15 K	298.15 K	303.15 K	308.15 K	313.15 K	318.15 K
in DMAc	0.00978	0.0108	0.0119	0.0131	0.0144	0.0158	0.0173	0.0189	0.0206
in DMF	0.00586	0.00662	0.00747	0.0084	0.00943	0.0106	0.0118	0.0132	0.0147
in THF	0.000205	0.00023	0.000263	0.00029	0.000328	0.000359	0.000401	0.00045	0.000511
in ethyl acetate	5.17e-05	5.93e-05	6.79e-05	7.74e-05	8.81e-05	0.0001	0.000113	0.000128	0.000144
